The record followed here is paper PMC10967856, “Mechanistic Insights Revealed by YbtPQ in the Occluded State” (Biomolecules, 2024).

Assay [1] concerns the target T1, YbtPQ (Escherichia coli, UniProt Q1RAG2+Q1RAG3).
T1 construct: gene ybtP
Particulars: YbtPQ-nanodisc; basal ATPase activity, no Km given.

Assay [2] concerns the target T1, YbtPQ. Particulars: trapping at 37 °C for 15 min, vanadate 0-20 mM tested (20 mM with 18 mM ATP and 54 mM MgCl2 for the cryo-EM sample); YbtPQ-nanodisc; traps as ADP-Vi.

Turning to `Nc1ncnc2c1ncn2[C@@H]1O[C@H](COP(=O)(O)OP(=O)(O)OP(=O)(O)O)[C@@H](O)[C@H]1O` [ATP], the “ATPase activity, malachite green phosphate release” value at YbtPQ [1] is reported as “malachite green reacting with the released phosphate group”.

Regarding `[O]=[V]([OH])([OH])[OH]` [vanadate], the “% drop in ATPase activity after vanadate trapping” value on YbtPQ [2] is ~ 90%.
